According to EP1497262B1, “ACYL-4-CARBOXYPHENYLUREA DERIVATIVES, METHOD FOR PRODUCTION AND USE THEREOF” (Sanofi-Aventis Deutschland GmbH, priority 2002, dated 2003):

Target: T1, Humane Glykogenphosphorylase a (Homo sapiens, UniProt P06737)
T1 sequence (P06737 1-847): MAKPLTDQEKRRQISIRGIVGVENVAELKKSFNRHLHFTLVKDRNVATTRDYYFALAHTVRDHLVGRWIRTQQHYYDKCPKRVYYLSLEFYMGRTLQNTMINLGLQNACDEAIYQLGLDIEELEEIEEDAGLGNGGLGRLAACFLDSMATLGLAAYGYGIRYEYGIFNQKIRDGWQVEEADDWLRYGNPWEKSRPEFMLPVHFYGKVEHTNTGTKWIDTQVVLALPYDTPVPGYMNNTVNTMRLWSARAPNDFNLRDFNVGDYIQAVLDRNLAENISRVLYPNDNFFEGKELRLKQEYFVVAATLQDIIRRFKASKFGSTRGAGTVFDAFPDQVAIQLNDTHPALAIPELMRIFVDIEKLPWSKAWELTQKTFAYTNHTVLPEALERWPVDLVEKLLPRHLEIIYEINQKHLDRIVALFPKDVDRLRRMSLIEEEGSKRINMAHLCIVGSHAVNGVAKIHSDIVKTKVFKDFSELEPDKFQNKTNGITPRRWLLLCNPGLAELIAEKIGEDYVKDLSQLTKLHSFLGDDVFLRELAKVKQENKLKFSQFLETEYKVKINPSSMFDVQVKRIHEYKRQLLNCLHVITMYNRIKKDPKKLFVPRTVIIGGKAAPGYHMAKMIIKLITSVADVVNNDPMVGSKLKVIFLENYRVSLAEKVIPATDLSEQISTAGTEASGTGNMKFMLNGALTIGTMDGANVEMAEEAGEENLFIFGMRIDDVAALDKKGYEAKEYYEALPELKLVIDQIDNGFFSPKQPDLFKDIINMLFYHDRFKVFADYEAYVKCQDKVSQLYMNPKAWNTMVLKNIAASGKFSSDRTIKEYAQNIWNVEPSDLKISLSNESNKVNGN
Assay: Glycogen phosphorylase a activity test (reverse direction, release of inorganic phosphate)
Format: biochemical
Conditions: 10 µM test substance, in vitro, 40 min at room temperature, absorbance at 820 nm; for inhibition at 10 µM: read-out: % Inhibition bei 10 µM
Procedure: Glykogenphosphorylase a Aktivitätstest
Der Effekt von Verbindungen auf die Aktivität der aktiven Form der Glykogenphosphorylase (GPa) wurde in der umgekehrten Richtung, durch Verfolgen der Glykogensynthese aus Glukose-1-Phosphat an Hand der Bestimmung der Freisetzung von anorganischem Phosphat, gemessen.
Prüfsubstanzen wurden als 10 mM Lösung in DMSO zubereitet und auf 50 µM mit Pufferlösung T verdünnt. Zu 10 µl dieser Lösung wurden 10 µl 37,5 mM Glukose, gelöst in Pufferlösung T und 5 mg/mL Glykogen, sowie 10 µl einer Lösung von humaner Glykogenphosphorylase a ([…]) und 20 µl Glukose-1-Phosphat, 2,5 mM zugegeben. Der basale Wert der Glykogenphosphorylase a Aktivität in Abwesenheit von Prüfsubstanz wurde durch Zugabe von 10 µl Pufferlösung T (0,1 % DMSO) bestimmt. […] Zur Bestimmung der Hintergrundsabsorption wurde in einem separaten Ansatz die Stop-Lösung unmittelbar nach Zugabe der Glukose-1-Phosphatlösung zugegeben.
Dieser Test wurde mit einer Konzentrationen von 10 µM der Prüfsubstanz durchgeführt, um die jeweilige Hemmung der Glykogenphosphorylase a in vitro durch die Prüfsubstanz zu bestimmen. Tabelle 2: Biologische Aktivität

| SMILES | inhibition at 10 µM | % Inhibition bei 10 µM |
| --- | --- | --- |
| NC(CO)(CO)CO.O=C(NC(=O)c1cc(F)c(F)cc1Cl)Nc1ccc(C(=O)O)cc1OC(F)(F)F [compound 49, 4-[3-(2-Chlor-4,5-difluor-benzoyl)-ureido]-3-trifluoromethoxy-benzoesäure TRIS-Salz] |  | 103% |
| O=C(NC(=O)c1ccc(Cl)cc1Cl)Nc1ccc(C(=O)O)cc1O [compound 5] | 80% |  |

Second part, led by results:

| inhibition at 10 µM | SMILES | % Inhibition bei 10 µM |
| --- | --- | --- |
| 3% | CCOC(=O)c1ccc(NC(=O)NC(=O)c2c(F)cccc2F)cc1 [Vergleichsbeispiel A, reference compound] |  |
| 85% | O=C(NC(=O)c1ccc(Cl)cc1Cl)Nc1ccc(C(=O)O)cc1[N+](=O)[O-] [compound 2] |  |
| 71% | O=C(NC(=O)c1ccccc1Cl)Nc1ccc(C(=O)O)cc1[N+](=O)[O-] [compound 1] |  |
